Measured values taken from PMC7337056, “Structural and biochemical characterization of the pleckstrin homology domain of the RhoGEF P-Rex2 and its regulation by PIP3” (Journal of Structural Biology: X, 2018).
Where a chain is given by its changes, count along the chain named.

Assays:
Assay type in all cases: binding
[1] = target: T1, P-Rex1 PH domain (Homo sapiens, UniProt Q8TCU6, K368A); assay: differential scanning fluorimetry (SYPRO orange); details: 50 mM HEPES pH 8, 150 mM NaCl, 2 mM DTT; 1 mM ligand
T1 construct: gene PREX1; PH domain, residues 245-408; 10xHis-MBP tag removed with TEV; E. coli Rosetta (DE3) pLysS
T1 sequence (Q8TCU6 245-408 K368A): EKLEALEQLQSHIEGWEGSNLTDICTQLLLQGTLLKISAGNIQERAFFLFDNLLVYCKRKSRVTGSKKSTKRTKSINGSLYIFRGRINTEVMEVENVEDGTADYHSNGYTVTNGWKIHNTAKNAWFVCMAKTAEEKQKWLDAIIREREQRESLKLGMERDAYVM

[2] = target: T2, P-Rex1 PH domain (Homo sapiens, UniProt Q8TCU6, K280A); assay: differential scanning fluorimetry (SYPRO orange); details: 50 mM HEPES pH 8, 150 mM NaCl, 2 mM DTT; 1 mM ligand
T2 construct: gene PREX1; PH domain, residues 245-408; 10xHis-MBP tag removed with TEV; E. coli Rosetta (DE3) pLysS
T2 sequence (Q8TCU6 245-408 K280A): as the sequence (Q8TCU6 245-408 K368A) above, with K36A, A124K counted along it

[3] = target: T3, P-Rex2 PH domain (Homo sapiens, UniProt Q70Z35, K254A); assay: differential scanning fluorimetry (SYPRO orange); details: 50 mM HEPES pH 8, 150 mM NaCl, 2 mM DTT; 1 mM ligand
T3 construct: gene PREX2; PH domain, residues 219-364 for assays (219-377 for crystal 6BNM); 10xHis-MBP tag removed with TEV; E. coli Rosetta (DE3) pLysS
T3 sequence (Q70Z35 219-364 K254A): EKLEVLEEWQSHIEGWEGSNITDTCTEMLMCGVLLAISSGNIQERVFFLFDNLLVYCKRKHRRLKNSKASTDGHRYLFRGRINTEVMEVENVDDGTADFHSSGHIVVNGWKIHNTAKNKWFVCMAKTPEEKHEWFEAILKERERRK

[4] = target: T4, P-Rex2 PH domain (Homo sapiens, UniProt Q70Z35); assay: isothermal titration calorimetry; details: 20 mM HEPES pH 8, 150 mM NaCl, 25 °C
T4 construct: gene PREX2; PH domain, residues 219-364 for assays (219-377 for crystal 6BNM); 10xHis-MBP tag removed with TEV; E. coli Rosetta (DE3) pLysS
T4 sequence (Q70Z35 219-364): T3 sequence (Q70Z35 219-364 K254A) with A36K

[5] = target: T5, P-Rex2 PH domain (Homo sapiens, UniProt Q70Z35, K337A); assay: differential scanning fluorimetry (SYPRO orange); details: 50 mM HEPES pH 8, 150 mM NaCl, 2 mM DTT; 1 mM ligand
T5 construct: gene PREX2; PH domain, residues 219-364 for assays (219-377 for crystal 6BNM); 10xHis-MBP tag removed with TEV; E. coli Rosetta (DE3) pLysS
T5 sequence (Q70Z35 219-364 K337A): T3 sequence (Q70Z35 219-364 K254A) with A36K, K119A

[6] = target: T4, P-Rex2 PH domain; assay: differential scanning fluorimetry (SYPRO orange)

`O=P(O)(O)OC1[C@H](O)[C@H](OP(=O)(O)O)C(OP(=O)(O)O)[C@H](OP(=O)(O)O)[C@H]1O` (stereo partly drawn) [Ins(1,3,4,5)P4, D-myo-Inositol-1,3,4,5-tetraphosphate] was tested, and the “ΔTm at 1 mM” value [1] was “P-Rex1 variants display the same trends in binding deficiency”, the “ΔTm at 1 mM” value [2] was “P-Rex1 variants display the same trends in binding deficiency” and the “ΔTm at 1 mM” value [3] was “mutation of any one of the PIP3-binding residues drastically reduces the temperature shift”. The Kd [4] was 240 ± 140 nM, the “ΔTm at 1 mM” value [5] was “mutation of any one of the PIP3-binding residues drastically reduces the temperature shift” and the ΔTm at 1000 µM [6] was 11 °C.
